From US9249127B2 (Orion Corporation, priority 2012, dated 2016) come the findings set out here.

Counter-ions that a name gives are not always drawn. Like-named read-outs stand apart in the source and are kept apart here.

For this test, the target named is T1, alpha2A receptor (Homo sapiens, UniProt P08913).
T1 sequence (P08913 1-465): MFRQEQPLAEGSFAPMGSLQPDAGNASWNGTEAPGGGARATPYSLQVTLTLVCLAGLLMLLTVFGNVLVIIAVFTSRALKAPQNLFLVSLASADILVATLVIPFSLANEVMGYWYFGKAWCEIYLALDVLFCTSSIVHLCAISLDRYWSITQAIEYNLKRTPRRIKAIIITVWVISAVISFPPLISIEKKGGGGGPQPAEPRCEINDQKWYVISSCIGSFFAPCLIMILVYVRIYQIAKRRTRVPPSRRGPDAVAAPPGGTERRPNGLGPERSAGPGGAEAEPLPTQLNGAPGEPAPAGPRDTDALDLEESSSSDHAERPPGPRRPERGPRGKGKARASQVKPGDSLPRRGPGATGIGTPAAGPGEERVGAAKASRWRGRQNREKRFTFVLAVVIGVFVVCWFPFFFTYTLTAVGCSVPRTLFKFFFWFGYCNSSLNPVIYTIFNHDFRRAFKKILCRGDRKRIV
Kind of test: Alpha2A agonistic activity in vitro. The class given is cell-based.

Where [1] appears, read: Alpha2A Agonism pEC50, in vitro.
Setting [2] is: in vitro, read-out: Alpha2A Agonism pEC50 (converted).

Compound `C=Cc1cccc2c1CCOC2C1=NCCN1` (centres unmarked) [Example 7, 2-(5-Vinylisochroman-1-yl)-4,5-dihydro-1H-imidazole] had an EC50 under setting [1] of 0.0398 µM. Further, where the note is “in vitro”, the “Alpha2A Intrinsic Activity” value stood at 0.81. For `FC(F)Oc1cccc2c1CCOC2C1=NCCN1` (centres unmarked) [Example 90, 2-(5-(Difluoromethoxy)isochroman-1-yl)-4,5-dihydro-1H-imidazole], in that order: 0.0398 µM and 0.66. For the compound `FC(F)(F)CC1Cc2c(Br)cccc2C(C2=NCCN2)O1` (single isomer, unassigned) [Example 68], under “in vitro”, the “Alpha2A Intrinsic Activity” value is reported as 0.25. For `CC1COC(C2=NCCN2)c2cccc(Br)c21` (centres unmarked) [Example 20, 2-(5-Bromo-4-methylisochroman-1-yl)-4,5-dihydro-1H-imidazole], under setting [1], the EC50 is 0.0631 µM. For the same compound, the “Alpha2A Intrinsic Activity” value (in vitro) worked out at 0.87. For the compound `CC1Cc2c(Cl)cccc2C(C)(C2=NCCN2)O1` (centres unmarked) [Example 28, 2-(5-Chloro-1,3-dimethylisochroman-1-yl)-4,5-dihydro-1H-imidazole], the “Alpha2A Intrinsic Activity” value (in vitro) is 0.64. Under setting [2], the EC50 was 1 µM. For `Cc1cccc2c1C[C@@H](C)OC2(C)C1=NCCN1` (stereo partly drawn) [Example 23, 2-((3R)-1,3,5-trimethylisochroman-1-yl)-4,5-dihydro-1H-imidazole] the same measures were 0.68 and 0.316 µM. For `Cc1cccc2c1CC(C)OC2(C)C1=NCCN1` (centres unmarked) [Example 30, 2-(1,3,5-Trimethylisochroman-1-yl)-4,5-dihydro-1H-imidazole], in that order: 0.60 and 0.794 µM. Consider `CCc1cccc2c1CCOC2C1=NCCN1` (single isomer, unassigned) [Example 96], for which the EC50 under setting [1] was 0.02 µM. Further, the “Alpha2A Intrinsic Activity” value (in vitro) is 0.66.

In turn, `C[C@@H]1Cc2c(F)cccc2C(C2=NCCN2)O1` (stereo partly drawn) [Example 50, 2-((3R)-5-fluoro-3-methylisochroman-1-yl)-4,5-dihydro-1H-imidazole] showed an EC50 under setting [1] of 0.0251 µM. The “Alpha2A Intrinsic Activity” value (in vitro) is on record as 0.90. Regarding `Cc1cccc2c1CCSC2(C)C1=NCCN1` (centres unmarked) [Example 78, 2-(1,5-Dimethylisothiochroman-1-yl)-4,5-dihydro-1H-imidazole], for the setting “in vitro”, the “Alpha2A Intrinsic Activity” value is 0.62. In addition, under setting [2], the EC50 is 0.501 µM. For `COc1cc(C)c2c(c1)C(C1=NCCN1)OC(C)C2` (centres unmarked) [Example 85, 2-(7-Methoxy-3,5-dimethylisochroman-1-yl)-4,5-dihydro-1H-imidazole] the same measures were 0.22 and 1 µM. As to `CCCC1Cc2c(Br)cccc2C(C2=NCCN2)O1` (single isomer, unassigned) [Example 88, 2-((3)-5-bromo-3-propylisochroman-1-yl)-4,5-dihydro-1H-imidazole], under setting [1], the EC50 is 0.0501 µM. The “Alpha2A Intrinsic Activity” value (in vitro) came to 0.50. For `CC1(C2=NCCN2)OCc2cccc3cccc1c23` (single isomer, unassigned) [Example 103, 2-(1-methyl-1,3-dihydrobenzo[de]isochromen-1-yl)-4,5-dihydro-1H-imidazole] the same measures were 0.00631 µM and 0.74. For `CCc1cccc2c1CCOC2C1=NCCN1` (centres unmarked) [Example 8], in that order: 0.0398 µM and 0.77. As to `Cc1cccc2c1CC(CC(F)F)OC2C1=NCCN1` (centres unmarked) [Example 84, 2-(3-(2,2-Difluoroethyl)-5-methylisochroman-1-yl)-4,5-dihydro-1H-imidazole], the EC50 under setting [1] is 0.1 µM. Further, where the note is “in vitro”, the “Alpha2A Intrinsic Activity” value worked out at 0.45.

Consider `Brc1cccc2c1CCOC2C1=NCCN1` (centres unmarked) [Example 2, 2-(5-Bromoisochroman-1-yl)-4,5-dihydro-1H-imidazole], for which, under setting [1], the EC50 was 0.0158 µM. Also, the “Alpha2A Intrinsic Activity” value (in vitro) is listed as 0.85. For `CC1OC(C2=NCCN2)c2cccc3cccc1c23` (centres unmarked) [Example 104, 2-(3-Methyl-1,3-dihydrobenzo[de]isochromen-1-yl)-4,5-dihydro-1H-imidazole] the same measures were 0.00316 µM and 0.95.

Compound `FC(F)c1cccc2c1CCOC2C1=NCCN1` (centres unmarked) [Example 99, 2-(5-(Difluoromethyl)isochroman-1-yl)-4,5-dihydro-1H-imidazole] had an EC50 under setting [1] of 0.0126 µM. For the same compound, the “Alpha2A Intrinsic Activity” value (in vitro) was 0.73. Turning to `COc1cccc2c1CCOC2C1=NCCN1` (single isomer, unassigned) [Example 97, 2-(5-methoxyoisochroman-1-yl)-4,5-dihydro-1H-Imidazole], the “Alpha2A Intrinsic Activity” value (in vitro) was 0.69. Besides, under setting [2], the EC50 is 0.0158 µM. For `Cc1cccc2c1CC(CC(F)(F)F)OC2C1=NCCN1` (centres unmarked) [Example 52, 2-(5-Methyl-3-(2,2,2-trifluoroethyl)isochroman-1-yl)-4,5-dihydro-1H-imidazole], in that order: 0.41 and 0.1 µM. Take “2-(5-methoxy-3-(2,2,2-trifluoroethyl)methyl-isochroman-1-yl)-4,5-dihydro-1H-imidazole [Example 77]”: under “in vitro”, the “Alpha2A Agonism pEC50” value is 6.3 and the “Alpha2A Intrinsic Activity” value was 0.16. `C[C@@H]1Cc2c(cccc2C(F)(F)F)C(C2=NCCN2)O1` (stereo partly drawn) [Example 19, 2-((3R)-3-methyl-5-(trifluoromethyl)isochroman-1-yl)-4,5-dihydro-1H-imidazole] showed an EC50 under setting [1] of 0.00501 µM. Further, under “in vitro”, the “Alpha2A Intrinsic Activity” value is 0.81. Regarding `CCOc1cccc2c1CCOC2C1=NCCN1` (centres unmarked) [Example 51, 2-(5-Ethoxyisochroman-1-yl)-4,5-dihydro-1H-imidazole], under “in vitro”, the “Alpha2A Intrinsic Activity” value stood at 0.26. Moreover, under setting [2], the EC50 is 0.631 µM.

Under setting [1], `Clc1cccc2c1CCOC2C1=NCCN1` (centres unmarked) [Example 4, 2-(5-Chloroisochroman-1-yl)-4,5-dihydro-1H-imidazole] had an EC50 of 0.00794 µM. Also, the “Alpha2A Intrinsic Activity” value (in vitro) turned out to be 0.85. For `Brc1cccc2c1CCSC2C1=NCCN1` (centres unmarked) [Example 65, 2-(5-Bromoisothiochroman-1-yl)-4,5-dihydro-1H-imidazole], in that order: 0.0794 µM and 0.56. With `CC(O)c1cccc2c1CCOC2C1=NCCN1` (centres unmarked) [Example 58, 1-(1-(4,5-Dihydro-1H-imidazol-2-yl)isochroman-5-yl)ethanol], under “in vitro”, the “Alpha2A Intrinsic Activity” value is given as 0.47. In turn, `Cc1cccc2c1C[C@@H](C)OC2C1=NCCN1` (stereo partly drawn) [Example 36, 2-((3R)-3,5-dimethylisochroman-1-yl)-4,5-dihydro-1H-imidazole] had an EC50 under setting [1] of 0.00158 µM. Also, for the setting “in vitro”, the “Alpha2A Intrinsic Activity” value came out at 0.90.

Under setting [1], `C[C@@H]1Cc2c(Cl)cccc2C(C2=NCCN2)O1` (stereo partly drawn) [Example 33, 2-((3R)-5-chloro-3-methylisochroman-1-yl)-4,5-dihydro-1H-imidazole] gave an EC50 of 0.00158 µM. Also, the “Alpha2A Intrinsic Activity” value (in vitro) was found to be 0.93. `CC[C@@H]1Cc2c(cccc2C(F)(F)F)C(C2=NCCN2)O1` (stereo partly drawn) [Example 16, 2-((3R)-3-ethyl-5-(trifluoromethyl)isochroman-1-yl)-4,5-dihydro-1H-imidazole]: the “Alpha2A Intrinsic Activity” value (in vitro) amounted to 0.51. In addition, under setting [2], the EC50 was 0.0501 µM. In the case of `Cc1cccc2c1CCOC2(C)C1=NCCN1` (single isomer, unassigned) [Example 22, 2-(1,5-Dimethylisochroman-1-yl)-4,5-dihydro-1H-imidazole], under “in vitro”, the “Alpha2A Intrinsic Activity” value was found to be 0.33. Under setting [2], the EC50 is 1 µM. As for `CC1(C2=NCCN2)OCCc2c(Br)cccc21` (centres unmarked) [Example 11, 2-(5-Bromo-1-methylisochroman-1-yl)-4,5-dihydro-1H-imidazole], under setting [1], the EC50 is 0.1 µM. Further, the “Alpha2A Intrinsic Activity” value (in vitro) worked out at 0.83. For `CSc1cccc2c1CCOC2C1=NCCN1` (centres unmarked) [Example 87, 2-(5-(Methylthio)isochroman-1-yl)-4,5-dihydro-1H-imidazole] the same measures were 0.0631 µM and 0.75. `CCCC1Cc2c(Br)cccc2C(C2=NCCN2)O1` (centres unmarked) [Example 40, 2-(5-Bromo-3-propylisochroman-1-yl)-4,5-dihydro-1H-imidazole]: the “Alpha2A Intrinsic Activity” value (in vitro) is 0.31. The EC50 under setting [2] is 0.316 µM. As to `CCC1OC(C2=NCCN2)c2cccc3cccc1c23` (centres unmarked) [Example 105, 2-(3-Ethyl-1,3-dihydrobenzo[de]isochromen-1-yl)-4,5-dihydro-1H-imidazole], the EC50 under setting [1] is 0.0398 µM. For the same compound, the “Alpha2A Intrinsic Activity” value (in vitro) worked out at 0.66. Consider `FC(F)(F)Cc1cccc2c1CCOC2C1=NCCN1` (centres unmarked) [Example 72, 2-(5-(2,2,2-Trifluoroethyl)isochroman-1-yl)-4,5-dihydro-1H-imidazole], for which, where the note is “in vitro”, the “Alpha2A Intrinsic Activity” value came out at 0.09. The EC50 under setting [2] is 1.58 µM. For the compound `C=CCc1cccc2c1CCOC2C1=NCCN1` (centres unmarked) [Example 6, 2-(5-Allylisochroman-1-yl)-4,5-dihydro-1H-imidazole], the EC50 under setting [1] is 0.0398 µM. The “Alpha2A Intrinsic Activity” value (in vitro) stood at 0.53.

`Cc1cccc2c1CC(CC(F)F)OC2C1=NCCN1` (single isomer, unassigned) [Example 89, 2-((3-(2,2-difluoroethyl)-5-methylisochroman-1-yl)-4,5-dihydro-1H-imidazole hydrochloride] had an EC50 under setting [1] of 0.0398 µM. For the same compound, the “Alpha2A Intrinsic Activity” value (in vitro, hydrochloride) was determined as 0.33. In the case of `Cc1cccc2c1CCSC2C1=NCCN1` (centres unmarked) [Example 64, 2-(5-Methylisothiochroman-1-yl)-4,5-dihydro-1H-imidazole], the EC50 under setting [1] is 0.0794 µM. The “Alpha2A Intrinsic Activity” value (in vitro) was 0.59.
